# System: U87MG cells
# Test: Cytotoxicity assay (cell viability, CellTiter 96 Aqueous MTS)
# Type: cell-based
# Settings: Homo sapiens, U-87 MG, 72 h, 72 hours incubation, starting concentration 50 uM, 9 point half log dilution, average where tested repeatedly
# Protocol: Example 3: Cytotoxicity Assay
# U87MG cells were plated at a density of 7×10^3 cells/well and allowed to seed overnight. Cells were then treated with compounds from Table 1 or CMPD-1 (4-(2′-fluoro-[1,1′-biphenyl]-4-yl)-N-(4-hydroxyphenyl)butanamide as a positive control) were added to cells at a starting concentration of 50 uM, with a 9 point half log dilution, and incubated for 72 hours prior to viability determination. IC50 values were calculated from cell viability as measured using the CellTiter 96® Aqueous MTS reagent from Promega©, and the results are shown in Table 2.
row,Compound,IC50
1,"Cc1nc2cc(C(=O)NCCCc3ccc(-c4ccccc4F)cc3)ccc2[nH]1 [Compound 100, N-(3-(2′-fluoro-[1,1′-biphenyl]-4-yl)propyl)-2-methyl-1H-benzo[d]imidazole-5-carboxamide]",> 5000 nM
2,"COc1cccc(-c2ccc(CCCNC(=O)c3cccnc3C)cc2)c1F [Compound 317, N-(3-(2′-fluoro-3′-methoxy-[1,1′-biphenyl]-4-yl)propyl)-2-methylnicotinamide]",< 500 nM
3,"O=C(NCCCc1ccc(-c2ccccc2F)cc1)c1cnccn1 [Compound 76, N-(3-(2′-fluoro-[1,1′-biphenyl]-4-yl)propyl)pyrazine-2-carboxamide]",> 5000 nM
4,"Cn1ccc2cc(-c3ccc(CCCC(=O)Nc4cccnc4)cc3)ccc21 [Compound 169, 4-(4-(1-methyl-1H-indol-5-yl)phenyl)-N-(pyridin-3-yl)butanamide]",501 to 1000 nM
5,"Cc1nn(C)cc1-c1ccc(CCCC(=O)Nc2cccnc2)cc1 [Compound 203, 4-(4-(1,3-dimethyl-1H-pyrazol-4-yl)phenyl)-N-(pyridin-3-yl)butanamide]",> 5000 nM
6,"Cn1ncc2cc(-c3ccc(CCCNC(=O)c4cncnc4)cc3)ccc21 [Compound 231, N-(3-(4-(1-methyl-1H-indazol-5-yl)phenyl)propyl)pyrimidine-5-carboxamide]",< 500 nM
7,"Cc1cc(-c2ccc(CCCC(=O)Nc3cccnc3)cc2)cc2cn[nH]c12 [Compound 301, 4-(4-(7-methyl-1H-indazol-5-yl)phenyl)-N-(pyridin-3-yl)butanamide]",< 500 nM
8,"O=C(NCCCc1ccc(-c2cnc3[nH]ccc3c2)cc1)c1cncnc1 [Compound 307, N-(3-(4-(1H-pyrrolo [2,3-b]pyridin-5-yl)phenyl)propyl)pyrimidine-5-carboxamide]",< 500 nM
9,"COc1ccc(-c2ccc(CCCC(=O)Nc3cccnc3)cc2)cn1 [Compound 167, 4-(4-(6-methoxypyridin-3-yl)phenyl)-N-(pyridin-3-yl)butanamide]",> 5000 nM
10,"O=S(=O)(NCCCc1ccc(-c2ccccc2F)cc1)c1cccnc1 [Compound 262, N-(3-(2′-fluoro-[1,1′-biphenyl]-4-yl)propyl) pyridine-3-sulfonamide]",1000 to 5000 nM
11,"O=C(CCCc1ccc(-c2ccc3ncccc3c2)cc1)Nc1cccnc1 [Compound 163, N-(pyridin-3-yl)-4-(4-(quinolin-6-yl)phenyl)butanamide]",< 500 nM
12,"COc1ccc(CNC(=O)CCCc2ccc(-c3ccccc3F)cc2)cc1 [Compound 44, 4-(2′-fluoro-[1,1′-biphenyl]-4-yl)-N-(4-methoxybenzyl)butanamide]",501 to 1000 nM
13,"O=C(CCCc1ccc(-c2ccccc2F)cc1)NC1CCC(O)CC1 (stereo not drawn) [Compound 62, 4-(2′-fluoro-[1,1′-biphenyl]-4-yl)-N-(4-hydroxycyclohexyl)butanamide]",> 5000 nM
14,"O=C(NCCCc1ccc(-c2ccccc2F)cc1)c1ccc2c(c1)OCCO2 [Compound 91, N-(3-(2′-fluoro-[1,1′-biphenyl]-4-yl)propyl)-2,3-dihydrobenzo[b] [1,4]dioxine-6-carboxamide]",> 5000 nM
15,"O=C(CCCc1ccc(-c2cnc(N3CCOCC3)nc2)cc1)Nc1cccnc1 [Compound 205, 4-(4-(2-morpholinopyrimidin-5-yl)phenyl)-N-(pyridin-3-yl)butanamide]",> 5000 nM
16,"Cc1cc2ncc(C(=O)NCCCc3ccc(-c4ccccc4F)cc3)cn2n1 [Compound 286, N-(3-(2′-fluoro-[1,1′-biphenyl]-4-yl)propyl)-2-methylpyrazolo[1,5-a]pyrimidine-6-carboxamide]",< 500 nM
17,"Cn1ccc2cc(-c3ccc(CCCC(=O)Nc4cccnc4)cc3)cnc21 [Compound 294, 4-(4-(1-methyl-1H-pyrrolo[2,3-b]pyridin-5-yl)phenyl)-N-(pyridin-3-yl)butanamide]",501 to 1000 nM

row,Compound,IC50
1,"Cc1ncccc1C(=O)NCCCc1ccc(-c2ccc3c(cnn3C)c2)cc1 [Compound 241, 2-methyl-N-(3-(4-(1-methyl-1H-indazol-5-yl)phenyl)propyl)nicotinamide]",< 500 nM
2,"O=C(NCCCc1ccc(-c2ccccc2F)cc1)c1cc[nH]c1 [Compound 118, N-(3-(2′-fluoro-[1,1′-biphenyl]-4-yl)propyl)-1H-pyrrole-3-carboxamide]",> 5000 nM
3,"Cc1ccc(C(=O)NCC2(Cc3ccc(-c4ccc5c(cnn5C)c4)cc3)CC2)cn1 [Compound 303, 6-methyl-N-((1-(4-(1-methyl-1H-indazol-5-yl)benzyl)cyclopropyl)methyl) nicotinamide]",> 5000 nM
4,"Cc1cc(C(=O)NCCCc2ccc(-c3ccc4c(cnn4C)c3)cc2)no1 [Compound 227, 5-methyl-N-(3-(4-(1-methyl-1H-indazol-5-yl)phenyl)propyl)isoxazole-3-carboxamide]",< 500 nM
5,"COc1ccc(NC(=O)CCCc2ccc(-c3ccccc3F)cc2)cn1 [Compound 39, 4-(2′-fluoro-[1,1′-biphenyl]-4-yl)-N-(6-methoxypyridin-3-yl)butanamide]",> 5000 nM
6,"O=C(Cc1ccc(OC(F)(F)F)cc1)NCCCc1ccc(-c2ccccc2F)cc1 [Compound 120, N-(3-(2′-fluoro-[1,1′-biphenyl]-4-yl)propyl)-2-(4-(trifluoromethoxy)phenyl)acetamide]",501 to 1000 nM
7,"O=C(CCCc1ccc(-c2cnc3[nH]ncc3c2)cc1)Nc1cccnc1 [Compound 210, 4-(4-(1H-pyrazolo[3,4-b]pyridin-5-yl)phenyl)-N-(pyridin-3-yl)butanamide]",< 500 nM
8,"O=C(NCCCc1ccc(-c2ccccc2F)cc1)c1ccno1 [Compound 111, N-(3-(2′-fluoro-[1,1′-biphenyl]-4-yl)propyl)isoxazole-5-carboxamide]",> 5000 nM
9,"COc1ccc(CC(=O)NCCCc2ccc(-c3ccc4ncccc4c3)cc2)cc1 [Compound 246, 2-(4-methoxyphenyl)-N-(3-(4-(quinolin-6-yl)phenyl)propyl)acetamide]",< 500 nM
10,"Cc1ncc(C(=O)NCCCc2ccc(-c3ccc4c(cnn4C)c3)cc2)s1 [Compound 305, 2-methyl-N-(3-(4-(1-methyl-1H-indazol-5-yl)phenyl)propyl)thiazole-5-carboxamide]",< 500 nM
11,"O=C(CCCc1ccc(-c2ccccc2F)cc1)Nc1cn[nH]c1 [Compound 47, 4-(2′-fluoro-[1,1′-biphenyl]-4-yl)-N-(1H-pyrazol-4-yl)butanamide]",> 5000 nM
12,"O=C(Cc1ccc(F)cc1)NCCCc1ccc(-c2ccccc2F)cc1 [Compound 284, N-(3-(2′-fluoro-[1,1′-biphenyl]-4-yl)propyl)-2-(4-fluorophenyl)acetamide]",< 500 nM
13,"CCOc1cccc(-c2ccc(CCCC(=O)Nc3cccnc3)cc2)c1F [Compound 218, 4-(3′-ethoxy-2′-fluoro-[1,1′-biphenyl]-4-yl)-N-(pyridin-3-yl)butanamide]",< 500 nM
14,"O=C(CCCc1ccc(-c2ccccc2F)cc1)Nc1ccc2[nH]ccc2c1 [Compound 6, 4-(2′-fluoro-[1,1′-biphenyl]-4-yl)-N-(1H-indol-5-yl)butanamide]",1000 to 5000 nM
15,"O=C(CCCc1ccc(-c2ccccc2F)cc1)NCC1CC1 [Compound 50, N-(cyclopropylmethyl)-4-(2′-fluoro-[1,1′-biphenyl]-4-yl)butanamide]",1000 to 5000 nM
16,"O=C(CCCc1ccc(-c2ccccc2F)cc1)Nc1ccon1 [Compound 63, 4-(2′-fluoro-[1,1′-biphenyl]-4-yl)-N-(isoxazol-3-yl)butanamide]",> 5000 nM

# — patent US12247010B2, “Tubulin inhibitors” (LIN BIOSCIENCE PTY LTD., priority 2017, dated 2025)
